Laboratory results published in ChEMBL document CHEMBL2177104, “Identification of antitubercular benzothiazinone compounds by ligand-based design” (J Med Chem, 2012).
≈ marks a conversion by molar mass, not a printed value.

Test system: Mycobacterium tuberculosis
Assay: Antimycobacterial activity against multidrug-resistant Mycobacterium tuberculosis 2745/09
Assay type: functional

SMILES	MIC
CN(c1nc(=O)c2cc(C(F)(F)F)cc([N+](=O)[O-])c2s1)[C@H]1CCN(Cc2ccccc2)C1	> 0.03 µg/mL
Cc1ccc(CNc2nc(=O)c3cc(C(F)(F)F)cc([N+](=O)[O-])c3s2)n1C	≤ 0.125 µg/mL
CCCOCC1COC2(CCN(c3nc(=O)c4cc(C(F)(F)F)cc([N+](=O)[O-])c4s3)CC2)O1 (configuration not stated)	≤ 0.015 µg/mL
O=c1nc(N2CCC(c3ccccc3)CC2)sc2c([N+](=O)[O-])cc(C(F)(F)F)cc12	≤ 0.0125 µg/mL
C[C@H]1COC2(CCN(c3nc(=O)c4cc(C(F)(F)F)cc([N+](=O)[O-])c4s3)CC2)O1 [BTZ-043]	≤ 0.015 µg/mL
COC(=O)C1CN(c2nc(=O)c3cc(C(F)(F)F)cc([N+](=O)[O-])c3s2)CCC12OC[C@H](C)O2 (some centres not stated)	> 0.1 µg/mL
O=c1nc(NCc2ccc3c(c2)OCCO3)sc2c([N+](=O)[O-])cc(C(F)(F)F)cc12	0.03 µg/mL (≈ 0.0683 µM)
CN(C)c1ccc(CN(C)c2nc(=O)c3cc(C(F)(F)F)cc([N+](=O)[O-])c3s2)cc1	0.03 µg/mL (≈ 0.0684 µM)
CN(C(=O)CN1CCN(c2nc(=O)c3cc(C(F)(F)F)cc([N+](=O)[O-])c3s2)CC1)c1ccccc1	0.03 µg/mL (≈ 0.0591 µM)
O=c1nc(N2CCN(c3nccs3)CC2)sc2c([N+](=O)[O-])cc(C(F)(F)F)cc12	≤ 0.125 µg/mL
COC(=O)[C@@H]1OC2(CCN(c3nc(=O)c4cc(C(F)(F)F)cc([N+](=O)[O-])c4s3)CC2)O[C@H]1c1ccccc1	> 0.03 µg/mL
O=c1nc(N2CCC(F)(F)CC2)sc2c([N+](=O)[O-])cc(C(F)(F)F)cc12	≤ 0.125 µg/mL
